Reference: US9023789B2, “Amylin analogs and pharmaceutical compositions thereof” (Novo Nordisk A/S, priority 2012, dated 2015)
≈ marks a conversion by molar mass, not a printed value. Read-outs that look alike come from different tables or passages of the source. Numbered stars: 1 amine (or outer) side, 2 acyl side, 3 side chain; on linkers, the order of the positions; unused ones are H or OH. Bridge positions count the residues as written; N and C are the ends. Side chains are listed from the residue outwards. Peptide text beside a SMILES is read from it. * marks the point of attachment. C20 diacid = O=C(O)CCCCCCCCCCCCCCCCCCC(=O)*; γGlu = O=C(O)[C@H](CCC(=O)[*:2])N[*:1]

Key:
Sprague Dawley (SD) rats = assay: ASSAY (I) efficacy testing on appetite (food intake) using an ad libitum fed rat model; type: in vivo; details: rat
Outline: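 Individual food consumption was logged each hour up to 7 h and again at 24 h, occasionally 48 h, with Grubbs-test outliers removed. Each 200–250 g Sprague Dawley rat, free-feeding in its home cage under reversed lighting, received a single ip, po or sc dose of 0.01–3 mg/kg at lights-off, alongside a vehicle group.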

[1] = ASSAY (IV) determination of solubility; type: physicochemical
Outline: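 Samples of polypeptide, prepared from a water stock at […] and diluted 1:1 into 100 mM buffers spanning pH 3.0 to 8.0, stood 18 hours at room temperature. Polypeptide concentration was then determined by UPLC following centrifugation.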

[2] = biological target: T1, human amylin receptor (membranes from Amylin 3(a)/CRE-luc cells) (Homo sapiens, UniProt O60896+P30988); assay: ASSAY (V) binding to the human amylin receptor (SPA, 125I-rat amylin);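 further: competition binding of cell membranes (35 ng/µL) mixed with SPA beads in 384-well plates at 40 µL total volume, read by scintillation counting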
T1 construct: expressed in transfected cells
T1 sequence (P30988 25-474): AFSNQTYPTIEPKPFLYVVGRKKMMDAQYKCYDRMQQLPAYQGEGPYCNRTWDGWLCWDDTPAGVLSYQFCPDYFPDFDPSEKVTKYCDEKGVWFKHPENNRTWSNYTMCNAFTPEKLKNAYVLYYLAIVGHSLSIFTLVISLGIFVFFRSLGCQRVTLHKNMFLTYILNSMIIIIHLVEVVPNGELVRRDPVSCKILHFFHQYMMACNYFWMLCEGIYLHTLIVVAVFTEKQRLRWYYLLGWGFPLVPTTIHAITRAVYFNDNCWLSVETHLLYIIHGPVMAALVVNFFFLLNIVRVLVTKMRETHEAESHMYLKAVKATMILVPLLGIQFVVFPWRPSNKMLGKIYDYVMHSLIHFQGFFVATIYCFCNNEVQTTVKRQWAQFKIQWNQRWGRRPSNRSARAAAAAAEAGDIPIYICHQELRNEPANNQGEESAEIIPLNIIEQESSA
T1 sequence (O60896 24-148 partner): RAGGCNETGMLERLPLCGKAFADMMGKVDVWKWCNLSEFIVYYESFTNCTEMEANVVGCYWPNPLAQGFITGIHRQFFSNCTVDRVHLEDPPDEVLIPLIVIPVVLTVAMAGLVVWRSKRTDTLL

[3] = biological target: T2, rat amylin receptor (rat calcitonin receptor + rat RAMP 3) (Rattus norvegicus, UniProt P32214+Q9JJ73); assay: ASSAY (VI) binding to the rat amylin receptor; details: for IC50: binding to rat amylin receptor, read-out: rAmylin-R bind IC50
T2 construct: expressed in transfected cells; host or cells: BHK tk'ts 13 (transient, FuGENE 6), membranes
T2 sequence (P32214 25-479 isoform P32214-2 limits assumed): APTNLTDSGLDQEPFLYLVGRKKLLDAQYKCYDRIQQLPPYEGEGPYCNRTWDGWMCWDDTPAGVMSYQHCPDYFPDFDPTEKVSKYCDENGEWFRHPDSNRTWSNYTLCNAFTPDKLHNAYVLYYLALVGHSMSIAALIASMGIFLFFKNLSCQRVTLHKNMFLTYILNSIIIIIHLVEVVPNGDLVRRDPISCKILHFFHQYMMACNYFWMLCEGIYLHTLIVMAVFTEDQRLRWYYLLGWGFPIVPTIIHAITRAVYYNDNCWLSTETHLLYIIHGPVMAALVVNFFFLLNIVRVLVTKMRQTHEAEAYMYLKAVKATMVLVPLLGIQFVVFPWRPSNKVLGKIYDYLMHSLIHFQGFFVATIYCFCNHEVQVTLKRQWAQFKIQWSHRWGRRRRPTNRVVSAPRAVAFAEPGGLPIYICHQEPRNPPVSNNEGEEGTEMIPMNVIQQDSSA
T2 sequence (Q9JJ73 23-147 partner): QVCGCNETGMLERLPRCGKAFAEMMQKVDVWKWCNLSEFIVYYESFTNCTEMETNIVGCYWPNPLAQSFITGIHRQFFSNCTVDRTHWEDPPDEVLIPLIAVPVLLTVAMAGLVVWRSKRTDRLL
Outline: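 Membranes for this rat amylin receptor binding assay came from BHK tk′ts 13 cells. The cells were transiently transfected with rat calcitonin receptor using the FuGENE® 6 reagent from Roche, as the manufacturer recommends. The cells were collected approximately 48 hours after transfection, and membranes were then prepared.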

rat calcitonin receptor = biological target: T3, rat calcitonin receptor (Rattus norvegicus, UniProt P32214); assay: ASSAY (VIII) binding to the rat calcitonin receptor; details: Table 7, read-out: rCTR bind IC50
T3 construct: expressed in transfected cells; host or cells: BHK tk'ts 13 (transient, FuGENE 6), membranes
T3 sequence (P32214 25-479 isoform P32214-2 limits assumed): T2 sequence (P32214 25-479 isoform P32214-2 limits assumed)
Outline: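 Cell membranes for binding came from BHK tk′ts 13 cells harvested approximately 48 hours after transient transfection with the rat receptor.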

[4] = bistrispropane buffer, pH 6.5, read-out: Solubility pH 6.5 Concentration
[5] = bistrispropane buffer, pH 7.5, read-out: Solubility pH 7.5 Concentration
[6] = bistrispropane buffer, pH 6.0, read-out: Solubility pH 6.0 Concentration
[7] = bistrispropane buffer, pH 7.0, read-out: Solubility pH 7.0 Concentration
[8] = bistrispropane buffer, pH 8.0, read-out: Solubility pH 8.0 Concentration
[9] = glycylglycine buffer, pH 3.0, read-out: Solubility pH 3.0 Concentration
[10] = glycylglycine buffer, pH 4.0, read-out: Solubility pH 4.0 Concentration
[11] = glycylglycine buffer, pH 5.0, read-out: Solubility pH 5.0 Concentration
[12] = Table 5, selectivity, hCTR bind IC50 / hAmylin-R bind IC50
[13] = Table 5a, selectivity, hCTR bind IC50 / hAmylin-R bind IC50
[14] = Table 5b, selectivity, hCTR bind IC50 / hAmylin-R bind IC50
[15] = Table 5c, selectivity, hCTR bind IC50 / hAmylin-R bind IC50
[16] = Table 7, human binding selectivity, included for comparison
[17] = Table 7a (preferred compounds), human binding selectivity, included for comparison
[18] = ratio of human calcitonin receptor binding IC50 to human amylin receptor binding IC50
[19] = Table 7, rat binding selectivity, rCTR IC50 / rAmylin-R IC50
[20] = Table 7a (preferred compounds), rat binding selectivity, rCTR IC50 / rAmylin-R IC50
[21] = ratio of rCTR bind IC50 to rAmylin-R bind IC50

SMILES | Food intake reduction 0-24 h 30 nmol/kg (%) (Sprague Dawley (SD) rats; 0-24 h) | Food intake reduction 24-48 h 30 nmol/kg (%) (Sprague Dawley (SD) rats; 24-48 h) | solubility at 18 h [1, 4] [µM] | solubility at 18 h [1, 5] [µM] | solubility at 18 h [1, 6] [µM] | solubility at 18 h [1, 7] [µM] | solubility at 18 h [1, 8] [µM] | solubility at 18 h [1, 9] [µM] | solubility at 18 h [1, 10] [µM] | solubility at 18 h [1, 11] [µM] | Ratio hCT/hAmylin binding [2, 12] | Ratio hCT/hAmylin binding [2, 13] | Ratio hCT/hAmylin binding [2, 14] | Ratio hCT/hAmylin binding [2, 15] | Ratio hCT/hAmylin binding [2, 16] | Ratio hCT/hAmylin binding [2, 17] | Ratio hCT/hAmylin binding [2, 18] | IC50 ([3]; Table 7) [nM] | Ratio rCT/rAmylin binding [3, 19] | Ratio rCT/rAmylin binding [3, 20] | other results
CC[C@H](C)[C@H](NC(=O)[C@H](C)NC(=O)CNC(=O)[C@H](Cc1ccccc1)NC(=O)[C@H](CC(N)=O)NC(=O)[C@@H]1CCCN1C(=O)[C@H](CO)NC(=O)[C@H](CO)NC(=O)[C@H](Cc1c[nH]cn1)NC(=O)[C@H](CCCNC(=N)N)NC(=O)[C@H](CC(C)C)NC(=O)[C@H](Cc1ccccc1)NC(=O)[C@H](CC(=O)O)NC(=O)[C@H](C)NC(=O)[C@H](CC(C)C)NC(=O)[C@H](CCCNC(=N)N)NC(=O)[C@H](CCC(N)=O)NC(=O)[C@@H](NC(=O)[C@H](C)NC(=O)[C@@H]1CSSC[C@H](NC(=O)[C@@H](N)CCCCNC(=O)CC[C@H](NC(=O)CC[C@H](NC(=O)CCCCCCCCCCCCCCCCCCC(=O)O)C(=O)O)C(=O)O)C(=O)N[C@@H](CC(N)=O)C(=O)N[C@@H]([C@@H](C)O)C(=O)N[C@@H](C)C(=O)N[C@@H]([C@@H](C)O)C(=O)N1)[C@@H](C)O)C(=O)N1CCC[C@H]1C(=O)N[C@@H](CO)C(=O)N[C@@H](CO)C(=O)N[C@H](C(=O)N[C@@H](CC(N)=O)C(=O)N[C@H](C(=O)NCC(=O)N[C@@H](CO)C(=O)N[C@@H](CC(=O)O)C(=O)N[C@H](C(=O)N[C@@H](Cc1ccc(O)cc1)C(N)=O)[C@@H](C)O)C(C)C)[C@@H](C)O [Example 2] (H-K([γGlu-γGlu-C20 diacid])CNTATCATQRLADFLRHSSPNFGAIPSSTNVGSDTY-NH2; disulfide 2-7; N-terminus assumed) | 72 | 62 | 190 (≈ 857 µg/mL) | ≥ 200 | ≥ 200 | ≥ 200 | ≥ 200 | ≥ 200 | ≥ 200 | ≥ 200 | 47.5 | 47.5 | 47.5 | 47.5 | 47.5 | 47.5 | 47.5 | 0.295 | 365.7 | 365.7 | Food intake reduction 0-24 h 3 nmol/kg (%) (Sprague Dawley (SD) rats; 3 nmol/kg, 0-24 h): 39%; Food intake reduction 24-48 h 3 nmol/kg (%) (Sprague Dawley (SD) rats; 3 nmol/kg, 24-48 h): 10%; Ratio rCT/rAmylin binding [3, 21]: 365.7; IC50 (rat calcitonin receptor): 108 nM
CC[C@H](C)[C@H](NC(=O)[C@H](C)NC(=O)CNC(=O)[C@H](Cc1ccccc1)NC(=O)[C@H](CC(N)=O)NC(=O)[C@@H]1CCCN1C(=O)[C@H](CO)NC(=O)[C@H](CO)NC(=O)[C@H](Cc1c[nH]cn1)NC(=O)[C@H](CCCNC(=N)N)NC(=O)[C@H](CC(C)C)NC(=O)[C@H](Cc1ccccc1)NC(=O)[C@H](CC(N)=O)NC(=O)[C@H](C)NC(=O)[C@H](CC(C)C)NC(=O)[C@H](CCCNC(=N)N)NC(=O)[C@H](CCC(N)=O)NC(=O)[C@@H](NC(=O)[C@H](C)NC(=O)[C@@H]1CSSC[C@H](NC(=O)[C@H](CCCCN)NC(=O)CC[C@H](NC(=O)CCCCCCCCCCCCCCCCCCC(=O)O)C(=O)O)C(=O)N[C@@H](CC(N)=O)C(=O)N[C@@H]([C@@H](C)O)C(=O)N[C@@H](C)C(=O)N[C@@H]([C@@H](C)O)C(=O)N1)[C@@H](C)O)C(=O)N1CCC[C@H]1C(=O)N[C@@H](CO)C(=O)N[C@@H](CO)C(=O)N[C@H](C(=O)N[C@@H](CC(N)=O)C(=O)N[C@H](C(=O)NCC(=O)N[C@@H](CO)C(=O)N[C@@H](CCCCN)C(=O)N[C@H](C(=O)N[C@@H](Cc1ccc(O)cc1)C(N)=O)[C@@H](C)O)C(C)C)[C@@H](C)O [Example 34] | 37 | 25 | ≥ 200 | ≥ 200 | ≥ 200 | ≥ 200 | ≥ 200 | ≥ 200 | ≥ 200 | ≥ 200 | 64.4 | 64.4 | 64.4 | 64.4 | 64.4 | 64.4 | 64.4 | 1.72 | 52.0 | 52.0 | Ratio rCT/rAmylin binding [3, 21]: 52.0; IC50 (rat calcitonin receptor): 89.2 nM
